Assay [1] relates to Squamous lung carcinoma NCI-H520. Kind of assay: MTT proliferation assay, squamous lung carcinoma. The format is cell-based. The settings on record: Homo sapiens, treatment initially, after 48 hours, 10% FBS, read-out: Mean Percent Inhibition of Growth. The method, then: (§1) Human malignant cell lines were obtained from American Type Tissue Culture Collection (Rockville, Md.). Melanoma cells lines CRL 1585 and 1619 were cultured in RPMI 1640 (GIBCO-BRL, Life Technologies, Grand Island, N.Y.) with 10% FBS and passed with nonenzymatic Cell Dissociation Solution® (Sigma). The prostate adenocarcinoma cell line CRL 1435 (PC-3) was also cultured in RPMI 1640 with 10% FBS but passed with 0.05% trypsin and 0.53 mM EDTA. The squamous lung carcinoma NCI-H520 and the adenosquamous lung carcinoma NCI-H596 cell lines were grown in RPMI 1640 supplemented with 10% FBS, 10 mM HEPES and 1.0 mM sodium pyruvate and passed with trypsin/EDTA. The small cell lung carcinoma NCI-H82 was cultured as a suspension in RPMI 1640 with 10% FBS. All of the above were grown in a 37° C. humidified environment containing 5% CO2/air. The breast carcinoma cell line MDA-MB-453 was grown in a 37° C. humidified environment with free gas exchange with atmospheric air using Leibovitz's L-15 medium with 2 mM L-glutamine and 10% FBS and was passed with trypsin/EDTA.
The effect of disulfiram (0.15 to 5.0 μM), diethyldithiocarbamate (DDC, 1.0 μM) or PDTC (0.625 to 5.0 μM) on proliferation of malignant cell lines was studied in cultures stimulated with 10% FBS. Cell numbers were quantitated 24-72 hours later. In some experiments disulfiram or PDTC were added immediately after cells were plated. In other experiments, cells were plated and allowed to grow for 24-72 hours before fresh media with disulfiram or PDTC was added, and cell numbers were assayed 24-72 hours later. […]
Proliferation of cultured cells was quantitated using a previously reported calorimetric method based upon metabolic reduction of the soluble yellow tetrazolium dye 3-[4,5-dimethylthiazol]-2yl-2,5-diphenyl tetrazolium bromide (MTT) to its insoluble purple formazan by the action of mitochondrial succinyl dehydrogenase (See, e.g., S. J. Hirst, et al., “Quantifying proliferation of cultured human and rabbit airway smooth muscle in response to serum and platelet derived growth factor,” Am. J. Respir. Cell Mol. Biol. 7:574-581 (1992); R. Dashtaki, et al. R., supra; S. S. Brar, et al., “Requirement for reactive oxygen species in serum-induced and platelet-derived growth factor-induced growth of airway smooth muscle,” J. Biol. Chem. 274:20017-20026 (1999)). […] MTT-containing medium was removed, 0.5 ml dimethylsulfoxide (DMSO) was added to each well, and the absorbance of the solubilized purple formazan dye was measured at 540 nm. […]

Another assay deals with Melanoma M1585. Kind of assay: MTT proliferation assay, M1585 melanoma. The format is cell-based. Particulars: Homo sapiens; for inhibition at 0.625 µM: disulfiram 0.625 μM; for inhibition at 0.625 µM / inhibition at 1.25 µM / inhibition at 2.5 µM / inhibition at 5 µM: read-out: Mean Percent Inhibition of Growth; for inhibition at 1.25 µM: disulfiram 1.25 μM; for inhibition at 2.5 µM: disulfiram 2.5 μM; for inhibition at 5 µM: disulfiram 5.0 μM. The method, then:
as §1
The effect of disulfiram (0.15 to 5.0 μM), diethyldithiocarbamate (DDC, 1.0 μM) or PDTC (0.625 to 5.0 μM) on proliferation of malignant cell lines was studied in cultures stimulated with 10% FBS. Cell numbers were quantitated 24-72 hours later. In some experiments disulfiram or PDTC were added immediately after cells were plated. In other experiments, cells were plated and allowed to grow for 24-72 hours before fresh media with disulfiram or PDTC was added, and cell numbers were assayed 24-72 hours later. Synergy was studied between disulfiram and N,N′-bis(2-chloroethyl-N-nitrosourea (carmustine or BCNU, 1.0 to 1,000 μM) or cisplatin (0.1 to 100 μg/ml) added to medium. The effect of metals on disulfiram was studied with 0.2 to 10 μM copper (provided as CuSO4), zinc (as ZnCl2), silver (as silver lactate) or gold (as HAuCl4.3H2O) ions added to growth medium. No pH changes occurred with addition of metal salts to culture medium. To provide a biologically relevant source of copper, in some experiments medium was supplemented with human ceruloplasmin at doses replicating low and high normal adult serum concentrations (250 and 500 μg/ml).
Proliferation of cultured cells was quantitated using a previously reported calorimetric method based upon metabolic reduction of the soluble yellow tetrazolium dye 3-[4,5-dimethylthiazol]-2yl-2,5-diphenyl tetrazolium bromide (MTT) to its insoluble purple formazan by the action of mitochondrial succinyl dehydrogenase (See, e.g., S. J. Hirst, et al., “Quantifying proliferation of cultured human and rabbit airway smooth muscle in response to serum and platelet derived growth factor,” Am. J. Respir. Cell Mol. Biol. 7:574-581 (1992); R. Dashtaki, et al. R., supra; S. S. Brar, et al., “Requirement for reactive oxygen species in serum-induced and platelet-derived growth factor-induced growth of airway smooth muscle,” J. Biol. Chem. 274:20017-20026 (1999)). This assay empirically distinguishes between dead and living cells. For proliferation studies, cells were seeded into 24-well uncoated plastic plates (Costar) at 50,000 cells per well and cultured with respective media and mitogens. After 24-96 hours, medium was removed, cells were washed twice with 1 ml of sterile Dulbecco's modified phosphate buffered saline without Ca^2+ or Mg^2+ (DPBS), the medium was replaced with 1 ml/well fresh medium containing 100 μg/ml MTT, and plates were incubated an additional hour. MTT-containing medium was removed, 0.5 ml dimethylsulfoxide (DMSO) was added to each well, and the absorbance of the solubilized purple formazan dye was measured at 540 nm. A total of 4-6 wells were studied at each treatment condition. Preliminary studies were performed with 50-200 μg/ml MTT incubated for 15 minutes to 3 hours to determine the optimum concentration and incubation time at which the rate of conversion was linear and proportional to the number of cells present. […]
(Tetrazolium assays rely on reduction of a dye to a coloured formazan, in cell work by metabolically active cells.)

Where [2] appears, read: treatment after 24 hours of growth.
[3] abbreviates: treatment initially, after 48 hours, 10% FBS.

Read-outs that look alike come from different tables or passages of the source.

Here are results for one compound from patent US6548540B2, “Method of treating cancer using dithiocarbamate derivatives” (Charlotte-Mecklenburg Hospital Authority, priority 1998, dated 2003).

As to `CCN(CC)C(=S)SSC(=S)N(CC)CC` [Disulfiram, tetraethylthiuram disulfide], the inhibition at 0.625 µM in assay [1] (disulfiram 0.625 μM) stood at 76 ± 3%; with Melanoma M1585 (setting [2]), 74 ± 4%; with Melanoma M1585 (setting [3]) it was 100%. The inhibition at 1.25 µM came to 82 ± 4% in assay [1] (disulfiram 1.25 μM), 49 ± 7% in the assay on Melanoma M1585 (setting [2]) and 100% in the assay with Melanoma M1585 (setting [3]). Further, the values for the inhibition at 2.5 µM (in assay [1] (disulfiram 2.5 μM); in the assay with Melanoma M1585 (setting [2]); in the assay with Melanoma M1585 (setting [3])) were 77 ± 4%, 41 ± 2% and 100%, respectively. The inhibition at 5 µM was determined as 78 ± 3% in assay [1] (disulfiram 5.0 μM), 37 ± 6% in the assay on Melanoma M1585 (setting [2]) and 100% with Melanoma M1585 (setting [3]). In addition, the IC50 with Melanoma M1585 (M1585 melanoma cells, read-out: 50% inhibitor concentration (IC50)) worked out at 300 nM.

By inhibition is commonly meant the change of the read-out against control, counted positive when it falls.
